Results reported in patent publication US9155714B2, “Compositions comprising an aromatic alcohol and a TRPV-1 antagonist, and uses thereof” (JOHNSON & JOHNSON CONSUMER INC., priority 2013, dated 2015).
Values joined by “and” are separate entries in the source; they are usually repeats but may differ in a detail not shown here. Equal entries are not always repeated.

Tests used:
Assay type in all cases: cell-based
[1] = target: T1, human vanilloid receptor-1 (TRPV-1) (Homo sapiens, UniProt Q8NER1); test: Calcium Flux Test, phenoxyethanol replaced with capsaicin (capsaicin-induced calcium flux)
T1 construct: host or cells: HEK293
T1 sequence (Q8NER1 whole entry): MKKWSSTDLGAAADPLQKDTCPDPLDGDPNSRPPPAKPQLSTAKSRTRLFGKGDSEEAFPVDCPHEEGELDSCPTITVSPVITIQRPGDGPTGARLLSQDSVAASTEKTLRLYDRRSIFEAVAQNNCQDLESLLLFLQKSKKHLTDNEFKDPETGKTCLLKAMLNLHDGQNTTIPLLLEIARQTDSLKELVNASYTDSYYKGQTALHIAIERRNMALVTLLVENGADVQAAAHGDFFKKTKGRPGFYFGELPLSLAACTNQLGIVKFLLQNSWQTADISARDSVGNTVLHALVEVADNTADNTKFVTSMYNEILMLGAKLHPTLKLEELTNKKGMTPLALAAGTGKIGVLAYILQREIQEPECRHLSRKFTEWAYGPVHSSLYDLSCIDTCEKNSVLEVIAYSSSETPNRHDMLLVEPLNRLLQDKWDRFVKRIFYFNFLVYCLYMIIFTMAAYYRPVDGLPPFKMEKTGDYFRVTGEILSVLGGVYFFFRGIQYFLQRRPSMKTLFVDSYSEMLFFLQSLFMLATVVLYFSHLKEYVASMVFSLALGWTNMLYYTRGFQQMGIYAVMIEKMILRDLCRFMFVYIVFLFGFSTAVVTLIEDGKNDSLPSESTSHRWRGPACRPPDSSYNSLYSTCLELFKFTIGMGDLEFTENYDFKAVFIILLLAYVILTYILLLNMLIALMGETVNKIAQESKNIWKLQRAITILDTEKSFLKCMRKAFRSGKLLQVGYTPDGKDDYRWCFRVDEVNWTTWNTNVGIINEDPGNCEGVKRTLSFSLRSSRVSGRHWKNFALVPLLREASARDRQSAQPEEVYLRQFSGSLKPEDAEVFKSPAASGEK
Protocol: (§1) The Calcium Flux Test is performed in the following manner: Recombinant HEK293 cells expressing human vanilloid receptor-1 (TRPV-1; accession number AF196175, EMD Millipore, Billerica, Mass.) are grown in D-MEM/F-12 media (Life Technologies, Grand Island, N.Y.) supplemented with 10% fetal bovine serum, 1% non essential amino acids and 400 μg/mL Geneticin (Gibco, Life Technologies). Cells are plated at a concentration of 15,000 cells per well on poly-D-lysine-coated 384 well plates and incubated overnight at 5% CO2 and 37° C. After incubation, culture media is removed from the wells and replaced with 50 μL per well of Fluo-8 No Wash dye solution (#36315, AAT Bioquest, Sunnyvale, Calif.). The Fluo-8 dye solution is prepared by mixing 20 uL of Fluo-8 NW with 30 mL of 0.33× Pluronic® F127 Plus (BASF of Ludwigshafen, Germany) in assay buffer (1×HBSS+2% of HEPES). Fluo-8 dye is incubated for 30 minutes at room temperature. Intracellular calcium (Ca^2+) flux is monitored upon exposure to aromatic alcohol in DMSO vehicle by measuring fluorescence intensity at Ex/Em 490/525 on a Functional Drug Screening System (FDSS; Hamamatsu, […]). Measurements are taken every second for a period of 4 minutes. […] Statistical differences are obtained using One Way ANOVA with Tukey Post-hoc test; statistical significance is defined as P≦0.05.
(§2) The Maximum RFU obtained with a given concentration of aromatic alcohol is compared with the Maximum RFU obtained using the same concentration of aromatic alcohol but pretreated with the TRPV-1 antagonist for 5 minutes after dye incubation. Percent inhibition achieved with the TRPV-1 antagonist is calculated as: 100*((Maximum RFU of aromatic alcohol−Maximum RFU of aromatic alcohol pretreated with TRPV-1 antagonist)/Maximum RFU of aromatic alcohol).
(§3) Capsazepine and AMG9810 were tested for activity as TRPV-1 antagonists using the Calcium Flux Test using two different concentrations of phenoxyethanol in DMSO. They were also tested using the Calcium Flux Test in which phenoxyethanol was replaced with capsaicin. […]

[2] = target: T1, human vanilloid receptor-1 (TRPV-1); test: Calcium Flux Test, inhibition of phenoxyethanol-induced calcium flux
Protocol: as §1, §2, §3

[3] = target: T1, human vanilloid receptor-1 (TRPV-1); test: Calcium Flux Test, activity as TRPV-1 agonist
Protocol: as §1
(§4) Phenoxyethanol was tested at a series of concentrations in DMSO for activity as a TRPV-1 agonist according to the Calcium Flux Test described above. Capsaicin was used as a positive control.
(§5) Maximum RFU values for treatment with phenoxyethanol or capsaisin were compared to the Maximum RFU for a DMSO vehicle alone. Concentrations of phenoxyethanol and capsaicin are reported in milimolar (mM) and nanomolar (nM), respectively.
(§6) Benzyl alcohol and sodium bicarbonate were tested using the Calcium Flux Test.
(§7) Benzyl alcohol and phenethyl alcohol were tested at a series of concentrations in DMSO for activity as a TRPV-1 agonist as described in Example 1. Concentrations of benzyl alcohol and phenethyl alcohol are reported in units of % w/v.

[4] = target: T1, human vanilloid receptor-1 (TRPV-1); test: Calcium Flux Test, activity as TRPV-1 agonist; parameters: key: **: Statistically significant; n/s: Not statistically significant
Protocol: as §1, §4, §5, §6, §7

[5] = AMG9810 625 nM, capsaicin 100 nM
[6] = AMG9810 625 nM, capsaicin 300 nM
[7] = AMG9810 2500 nM, capsaicin 100 nM
[8] = AMG9810 2500 nM, capsaicin 300 nM
[9] = AMG9810 10000 nM, capsaicin 100 nM
[10] = AMG9810 10000 nM, capsaicin 300 nM
[11] = AMG9810 0.6104 nM, phenoxyethanol 2 mM
[12] = AMG9810 2 nM, phenoxyethanol 2 mM
[13] = AMG9810 10 nM, phenoxyethanol 2 mM
[14] = AMG9810 39 nM, phenoxyethanol 2 mM
[15] = AMG9810 39 nM, phenoxyethanol 3 mM
[16] = AMG9810 156 nM, phenoxyethanol 2 mM
[17] = AMG9810 156 nM, phenoxyethanol 3 mM
[18] = AMG9810 625 nM, phenoxyethanol 2 mM
[19] = AMG9810 625 nM, phenoxyethanol 3 mM
[20] = AMG9810 2500 nM, phenoxyethanol 2 mM
[21] = AMG9810 2500 nM, phenoxyethanol 3 mM
[22] = AMG9810 10000 nM, phenoxyethanol 2 mM
[23] = AMG9810 10000 nM, phenoxyethanol 3 mM

CC(C)(C)c1ccc(/C=C/C(=O)Nc2ccc3c(c2)OCCO3)cc1 [AMG9810, (E)-3-(4-t-butylphenyl)-N-(2,3-dihydrobenzo[b][1,4]dioxin-6-yl)acrylamide]
Maximum RFU (mean ± SD) ([1]; AMG9810 39 nM, capsaicin 100 nM): 942.69 ± 88.43 RFU
Maximum RFU (mean ± SD) ([1]; AMG9810 39 nM, capsaicin 300 nM): 975.35 ± 32.01 RFU
Maximum RFU (mean ± SD) ([1]; AMG9810 156 nM, capsaicin 100 nM): 916.79 ± 31.53 RFU
Maximum RFU (mean ± SD) ([1]; AMG9810 156 nM, capsaicin 300 nM): 958.56 ± 16.66 RFU
Maximum RFU (mean ± SD) [1, 5]: 735.36 ± 114.75 RFU
inhibition at 0.625 µM [1, 5]: 13.4%
Maximum RFU (mean ± SD) [1, 6]: 747.36 ± 77.35 RFU
inhibition at 0.625 µM [1, 6]: 14.6%
Maximum RFU (mean ± SD) [1, 7]: 85.41 ± 20.60 RFU
inhibition at 2.5 µM [1, 7]: 90%
Maximum RFU (mean ± SD) [1, 8]: 78.33 ± 46.56 RFU
inhibition at 2.5 µM [1, 8]: 91%
Maximum RFU (mean ± SD) [1, 9]: 47.00 ± 11.29 RFU
inhibition at 10 µM [1, 9]: 94.5%
Maximum RFU (mean ± SD) [1, 10]: 44.15 ± 2.20 RFU
inhibition at 10 µM [1, 10]: 95%
Maximum RFU (mean ± SD) ([2]; AMG9810 0.1526 nM, phenoxyethanol 2 mM): 261.54 ± 114.76 RFU
Maximum RFU (mean ± SD) ([2]; AMG9810 0.1526 nM, phenoxyethanol 3 mM): 412.30 ± 110.68 RFU
Maximum RFU (mean ± SD) [2, 11]: 189.72 ± 34.94 RFU
inhibition at 0.0006104 µM [2, 11]: 12.3%
Maximum RFU (mean ± SD) ([2]; AMG9810 0.6104 nM, phenoxyethanol 3 mM): 405.29 ± 152.93 RFU
Maximum RFU (mean ± SD) [2, 12]: 202.96 ± 18.01 RFU
inhibition at 0.002 µM [2, 12]: 6.2%
Maximum RFU (mean ± SD) ([2]; AMG9810 2 nM, phenoxyethanol 3 mM): 265.02 ± 52.11 RFU
Maximum RFU (mean ± SD) [2, 13]: 110.26 ± 27.80 RFU
inhibition at 0.01 µM [2, 13]: 49%
Maximum RFU (mean ± SD) ([2]; AMG9810 10 nM, phenoxyethanol 3 mM): 315.60 ± 125.77 RFU
Maximum RFU (mean ± SD) [2, 14]: 165.37 ± 162.35 RFU
inhibition at 0.039 µM [2, 14]: 23.6%
Maximum RFU (mean ± SD) [2, 15]: 98.74 ± 23.34 RFU
inhibition at 0.039 µM [2, 15]: 56%
Maximum RFU (mean ± SD) [2, 16]: 58.21 ± 5.97 RFU
inhibition at 0.156 µM [2, 16]: 73.1%
Maximum RFU (mean ± SD) [2, 17]: 75.59 ± 10.97 RFU
inhibition at 0.156 µM [2, 17]: 66.3%
Maximum RFU (mean ± SD) [2, 18]: 55.53 ± 8.48 RFU
inhibition at 0.625 µM [2, 18]: 74.3%
Maximum RFU (mean ± SD) [2, 19]: 58.16 ± 1.97 RFU
inhibition at 0.625 µM [2, 19]: 74.1%
Maximum RFU (mean ± SD) [2, 20]: 58.00 ± 5.34 RFU
inhibition at 2.5 µM [2, 20]: 73.2%
Maximum RFU (mean ± SD) [2, 21]: 68.59 ± 4.15 RFU
inhibition at 2.5 µM [2, 21]: 69.4%
Maximum RFU (mean ± SD) [2, 22]: 59.78 ± 3.84 RFU
inhibition at 10 µM [2, 22]: 72.4%
Maximum RFU (mean ± SD) [2, 23]: 65.74 ± 4.33 RFU
inhibition at 10 µM [2, 23]: 70.7%

OCc1ccccc1 [Benzyl Alcohol, benzyl alcohol]
intracellular calcium flux in TRPV-1-transfected HEK cells (result in words) [3]: dose dependent increases
Maximum RFU ([3]; benzyl alcohol 0.000161 % w/v alone (no antagonist)): 10.95 ± 0.23 RFU and 8.44 RFU and 16.17 ± 1.16 RFU
Maximum RFU (mean ± SD) ([3]; benzyl alcohol 0.25 mM (Example 7)): 64.45 ± 28.15 RFU
Maximum RFU (mean ± SD) ([3]; benzyl alcohol 0.5 mM (Example 7)): 104.45 ± 12.50 RFU
Maximum RFU (mean ± SD) ([3]; benzyl alcohol 1 mM (Example 7)): 113.51 ± 4.70 RFU
Maximum RFU (mean ± SD) ([3]; benzyl alcohol 2 mM (Example 7)): 135.45 ± 12.15 RFU
Maximum RFU (mean ± SD) ([3]; benzyl alcohol 4 mM (Example 7)): 362.51 ± 126.09 RFU
Maximum RFU ([3]; benzyl alcohol 0.004357 % w/v alone (no antagonist)): 43.91 ± 3.74 RFU and 31.54 RFU and 55.75 ± 2.68 RFU
Maximum RFU ([3]; benzyl alcohol 0.013072 % w/v alone (no antagonist)): 160.8 ± 12.61 RFU and 93.35 RFU and 124.54 ± 13.18 RFU
Maximum RFU ([3]; benzyl alcohol 0.04 % w/v alone (no antagonist)): 608.23 ± 10.21 RFU and 410.41 RFU and 424.01 ± 2.92 RFU
Maximum RFU ([3]; benzyl alcohol 6.64E−07 % w/v alone (no antagonist)): 9.37 ± 1.66 RFU and 7.66 RFU and 13.85 ± 1.83 RFU
activity for TRPV-1 activation (result in words) ([3]; doses of 2 mM and below, Example 7): did not show statistically significant activity
P < 0.05 Compared to Vehicle ([4]; benzyl alcohol 0.25 mM): n/s
P < 0.05 Compared to Vehicle ([4]; benzyl alcohol 0.5 mM): n/s
P < 0.05 Compared to Vehicle ([4]; benzyl alcohol 1 mM): n/s
P < 0.05 Compared to Vehicle ([4]; benzyl alcohol 2 mM): n/s
P < 0.05 Compared to Vehicle ([4]; benzyl alcohol 4 mM): **

CN(C)CCOC(c1ccccc1)c1ccccc1 [Diphenhydramine, diphenhydramine]
Maximum RFU (mean ± SD) ([1]; compound 100 μM, capsaicin 300 nM): 825.37 ± 9.95 RFU
reducing phenoxyethanol-induced calcium flux (result in words) ([2]; TRPV-1-expressing HEK293 cells): none of hydrocortisone, diphenhydramine or lidocaine were effective
Maximum RFU (mean ± SD) ([2]; compound 25 μM, phenoxyethanol 2 mM): 158.25 ± 0.69 RFU
Maximum RFU (mean ± SD) ([2]; compound 25 μM, phenoxyethanol 3 mM): 312.62 ± 67.77 RFU
Maximum RFU (mean ± SD) ([2]; compound 100 μM, phenoxyethanol 2 mM): 141.61 ± 33.91 RFU
Maximum RFU (mean ± SD) ([2]; compound 100 μM, phenoxyethanol 3 mM): 195.47 ± 53.34 RFU
